This is an account of results in patent publication US9862684B2, “Modulation of K2P channels” (The Regents of the University of California, priority 2013, dated 2018).

Several values for one entry are separate records, joined by “and”; a condition that tells them apart may be missing. Identical values can stand only once.

The target in one test is T1, K2P3.1 (TASK-1) (Mus musculus, UniProt O35111).
T1 construct: expressed in transfected cells; host or cells: Xenopus oocytes
Briefly: Two-electrode voltage clamp, Xenopus oocytes expressing K2P3.1 (TASK-1). It counts as cell-based, Murine. As for the experimental part:
(§1) FIG. 7 ML67-33 is a selective activator of heat- and mechanosensitive K2P channels. a-f, Exemplar I-V curves showing the effect of ML67-33 on a, K2P10.1 (TREK-2), b, K2P4.1 (TRAAK), c, K2P3.1 (TASK-1), d, K2P9.1 (TASK-3), e, K2P5.1 (TASK-2), and f, K2P18.1 (TRESK) measured in Xenopus oocytes in 2 mM [K^+]o pH 7.4. Currents were elicited by a voltage ramp from −150 to 50 mV, from a holding potential of −80 mV. g, Quantification of the effect of ML67-33 on the indicated channels. Data (mean±s.e., n≧6, N≧2) was normalized to basal channel activity and fitted to the Hill equation. […] Error bars indicate s.e., n≧6, N≧2.
(§2) Murine K2P channels were cloned into pGEMHE/pMO {Bagriantsev, 2011}, IRES-GFP (Invitrogen), or pYES2-MET25 (high copy 2μ, URA3) {Minor, 1999} for expression in oocytes, HEK-293T cells, and yeast, respectively, using standard molecular biology procedures, and verified by DNA sequencing.
Two-electrode voltage clamp recordings were performed from defolliculated stage V-VI Xenopus oocytes 24-48 hours after injection with 0.015-6.0 ng cRNA, using microelectrodes (0.3-3.0 MΩ) filled with 3M KCl. Data was acquired using the GeneClamp 500B (MDS Analytical Technologies) amplifier controlled by the pClamp software (Molecular Devices), and digitized at 1 kHz using Digidata 1332A (MDS Analytical Technologies). Recording solutions (mM): 2K (96 NaCl, 2 KCl, 1.8 CaCl2, 2 MgCl2), 90K (90 KCl, 8 NaCl, 1.8 CaCl2, 2 MgCl2), were buffered 5 mM HEPES pH 7.4. For K2P recordings, currents we elicited by a 1 second long ramp from −150 to +50 mV from a holding potential of −80 mV (2K), or −100 to +50 mV from a holding potential of 0 mV (90K). For KCNQ2 recordings, currents were elicited by a step protocol from −120 to 60 mV, in 20 mV increments, from a holding potential of −80 mV. Patch-clamp recordings from HEK-293T cells were performed using microelectrodes (2-3 MΩ) filled with 1M KCl. Data was acquired using the Axopatch 200B amplifier controlled by pClamp software, and digitized at 1 kHz using Digidata 1332A. Recording solutions (mM): intracellular (145 KCl, 5 EGTA, 3 MgCl2,) extracellular (150 NaCl, 5 KCl, 3 MgCl2, 1 CaCl2) were buffered with 5 mM HEPES pH 7.2 and 7.4, respectively. Currents were elicited by a 1 second long ramp from −150 to +50 mV from a holding potential of −80 mV. Data were fitted with a modified Hill's equation: I=Imin+(Imax−Imin)/(1+10^((Log EC50−Log [C])*H)), where Imax and Imin are maximal and minimal current values, respectively, EC50 is a half-maximal effective concentration of the compound, and H is the Hill coefficient.
There are six K2P subgroups {Noel, 2011} (FIG. 11). […]

Another test concerns the target T2, K2P18.1 (TRESK) (Mus musculus, UniProt Q6VV64).
T2 construct: expressed in transfected cells; host or cells: Xenopus oocytes
T2 sequence (Q6VV64 1-394): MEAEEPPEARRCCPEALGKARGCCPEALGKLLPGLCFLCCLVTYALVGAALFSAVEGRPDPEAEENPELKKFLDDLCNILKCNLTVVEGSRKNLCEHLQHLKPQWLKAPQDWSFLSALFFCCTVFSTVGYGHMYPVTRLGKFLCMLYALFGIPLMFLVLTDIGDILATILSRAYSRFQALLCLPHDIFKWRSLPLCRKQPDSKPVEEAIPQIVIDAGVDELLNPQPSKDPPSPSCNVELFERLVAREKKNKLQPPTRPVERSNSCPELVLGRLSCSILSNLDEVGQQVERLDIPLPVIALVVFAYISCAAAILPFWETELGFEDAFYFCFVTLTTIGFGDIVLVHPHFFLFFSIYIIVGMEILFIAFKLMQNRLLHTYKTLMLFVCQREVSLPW
In words: Two-electrode voltage clamp, Xenopus oocytes expressing K2P18.1 (TRESK). It counts as cell-based, Murine. As for the experimental part:
as §1, §2
Two-electrode voltage clamp recordings were performed from defolliculated stage V-VI Xenopus oocytes 24-48 hours after injection with 0.015-6.0 ng cRNA, using microelectrodes (0.3-3.0 MΩ) filled with 3M KCl. Data was acquired using the GeneClamp 500B (MDS Analytical Technologies) amplifier controlled by the pClamp software (Molecular Devices), and digitized at 1 kHz using Digidata 1332A (MDS Analytical Technologies). […]

Setting [1] is: at 100 μM (FIG. 7 legend), ** in Table 1.

T1 sequence (O35111 whole entry): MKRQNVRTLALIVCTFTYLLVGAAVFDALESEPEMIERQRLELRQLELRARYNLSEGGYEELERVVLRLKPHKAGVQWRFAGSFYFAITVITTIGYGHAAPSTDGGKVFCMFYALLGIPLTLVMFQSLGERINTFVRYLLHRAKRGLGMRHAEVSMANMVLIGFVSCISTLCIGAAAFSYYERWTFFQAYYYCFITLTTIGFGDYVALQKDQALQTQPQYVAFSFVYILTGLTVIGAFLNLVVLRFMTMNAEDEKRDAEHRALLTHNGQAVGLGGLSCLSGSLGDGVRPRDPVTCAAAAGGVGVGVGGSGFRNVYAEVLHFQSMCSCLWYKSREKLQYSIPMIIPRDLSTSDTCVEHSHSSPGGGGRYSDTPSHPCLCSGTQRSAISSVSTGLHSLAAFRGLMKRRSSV

`CC1(C)c2cc(Cl)ccc2N(CCc2nnn[nH]2)c2ccc(Cl)cc21` [ML67-33, 2,7-dichloro-9,9-dimethyl-10-[2-(1H-tetrazol-5-yl)ethyl]acridine]: the “functional effect / activation (in words)” value on K2P3.1 (TASK-1) (ML67-33 applied at 100 μM, ML67 concentration not stated) is listed as “little or no functional effects”. For the same compound, the “Emax (fold)” value on K2P3.1 (TASK-1) (setting [1]) is 1.1±0.0 fold and 1.1 ± 0.1** fold; on K2P18.1 (TRESK) (setting [1]) it was 0.9±0.1 fold. For the same compound, at K2P18.1 (TRESK) (applied at 100 μM), the “functional effect (in words)” value is listed as “little or no functional effects”.
